# Laboratory results published in article PMC4747952, “Development of TASP0410457 (TASP457), a novel dihydroquinolinone derivative as a PET radioligand for central histamine H3 receptors” (EJNMMI Research, 2016).
# Columns and labels:
# [1] = target: T1, Adrenergic α2c receptor (Homo sapiens, UniProt P18825); assay: Adrenergic α2c receptor binding, [3H]MK-912; settings: 0.08 nM [3H]MK-912; read-out: Off-target binding Adrenergic α2c, IC50
# T1 construct: purchased PerkinElmer
# T1 sequence (P18825 1-462): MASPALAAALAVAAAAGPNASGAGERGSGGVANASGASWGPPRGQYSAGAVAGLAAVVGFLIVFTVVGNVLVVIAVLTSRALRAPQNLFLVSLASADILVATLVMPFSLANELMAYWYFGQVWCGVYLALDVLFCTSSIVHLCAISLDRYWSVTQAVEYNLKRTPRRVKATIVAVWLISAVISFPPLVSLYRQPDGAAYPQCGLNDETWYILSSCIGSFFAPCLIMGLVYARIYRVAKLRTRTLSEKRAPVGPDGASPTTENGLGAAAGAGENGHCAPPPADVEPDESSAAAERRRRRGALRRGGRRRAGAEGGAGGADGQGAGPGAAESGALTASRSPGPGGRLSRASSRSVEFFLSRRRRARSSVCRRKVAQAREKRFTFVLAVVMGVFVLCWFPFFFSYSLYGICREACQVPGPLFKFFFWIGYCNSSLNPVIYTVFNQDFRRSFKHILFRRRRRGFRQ
# Protocol: H) 6.86 [d, J = 8.67 Hz, 2 H]; MS [ESI/APCI Dual) [Positive) m/z; 381(M+H)+ ) .
# Off-target binding of compounds
# The membrane preparations were made from Jurkat cell lines, and were incubated in sigma 1 binding buffer (0.1% bovine serum albumin in 50 mM Tris, pH7.4) containing 4 nM [3H]pentazocine (PerkinElmer), and serial concentrations of the compound at 25°C for 2.5 h. The reaction was terminated by rapid filtration through a 96-well GF/C filter plate presoaked in 0.5% polyethyleneimine.
# The filters were washed with ice-cold 50 mM Tris (pH7.4) three times, dried, and filled with Microscint-o. The radioactivity retained on the filter was counted using a TopCount NXT. Nonspecific binding was determined as the amount of radioactivity under the above-mentioned conditions in the presence of […] of haloperidol. The IC50 values were determined by nonlinear curve-fitting of the concentration-response data for each compound using Origin version 6.1087 (OriginLab Corporation, […]
# Adrenergic 2c receptor binding
# Human 2c receptor-expressing membrane preparations were purchased from PerkinElmer. The membranes were incubated in binding buffer (1 mM EDTA and 0.1% bovine serum albumin in 50 mM Tris, pH7.4) containing 0.08 nM [3H]MK-912 (PerkinElmer), and serial concentrations of the compound at 25°C for 1 h. The reaction was terminated by rapid filtration through a 96-well GF/C filter plate presoaked in 0.5% polyethyleneimine. […] The radioactivity retained on the filter was counted using a TopCount NXT. Nonspecific binding was determined as the amount of radioactivity under the conditions mentioned above in the presence of […] of rauwolscine. The IC50 values were determined as for sigma 1 receptor binding. […]
# The reaction was terminated by rapid filtration through a 96-well GF/C filter plate presoaked in 0.5% polyethyleneimine. […] The radioactivity retained on the filter was counted using a TopCount NXT. Nonspecific binding was determined as the amount of radioactivity under the above-mentioned conditions in the presence of 1 µM of atropine.
# [2] = test system: Ca2+ channel (L, dihydropyridine site); assay: Off-target binding (Cerep); set-up: unit of the concentration uncertain
# From the text: (§1) Off-target binding of compounds assessed using an in-house assay (M4) and a commercial battery (all
# (§2) others) (Cerep, Celle L'Evescault, France).
# (§3) Concentration % Inhibition Concentration % Inhibition Concentration % Inhibition […]
# [3] = test system: Benzodiazepine (central); assay: Off-target binding (Cerep); set-up: unit of the concentration uncertain
# From the text: as §1, §2, §3
# [4] = Radiochemical stability in the final formulation; assay type: physicochemical; settings: at 1 h after the end of radiosynthesis
# Protocol: [^11C]TASP0390136, [^11C]TASP0410457, and [^11C]TASP0434988 were synthesized as shown in Fig. 1a–c (detailed procedures are described in Additional file 1: Supplemental methods) using a homemade automated synthesis system. The radiochemical purities and specific activities of the radioligands, which were analyzed as described in Additional file 1: Supplemental Methods, along with their radiochemical yields and average synthesis times, are summarized in Table 1. Analytical HPLC chromatogram of each radioligand is shown in Additional file 2-4: Figures S1-S3. The radiochemical stabilities of [^11C]TASP0410457 and [^11C]TASP0434988 in the final formulation were >99 % at 1 h and 40 min, respectively, after the end of radiosynthesis.
# [5] = Concentration 1 (unit uncertain)
# [6] = Concentration 10 (unit uncertain)
IC50 [1],"% Inhibition [2, 5]","% Inhibition [3, 5]","% Inhibition [2, 6]","% Inhibition [3, 6]",radiochemical stability in the final formulation [4],Compound
0.528 µM,-27%,-2%,–,–,–,"COc1ccc(N2C(=O)CCc3cc(OC4CCN(C5CCC5)CC4)ccc32)cc1 [TASP0434988, 6-[(1-cyclobutylpiperidin-4-yl)oxy]-1-(4-methoxyphenyl)-3,4-dihydroquinolin-2(1H)-one]"
> 1 µM,–,–,20%,-19%,–,"COc1ccc(N2C(=O)CCc3cc(OCCCN4CCC[C@H]4C)ccc32)cc1 [TASP0390136, 1-(4-methoxyphenyl)-6-{3-[(2R)-2-methylpyrrolidin-1-yl]propoxy}-3,4-dihydroquinolin-2(1H)-one]"
> 1 µM,–,–,-23%,-4%,–,"COc1ccc(N2C(=O)CCc3cc(OC4CCN(C5CCC5)CC4)ccc32)cn1 [TASP0410457, 6-[(1-Cyclobutylpiperidin-4-yl)oxy]-1-(6-methoxypyridin-3-yl)-3,4-dihydroquinolin-2(1H)-one]"
–,–,–,–,–,> 99%,[11CH3]Oc1ccc(N2C(=O)CCc3cc(OC4CCN(C5CCC5)CC4)ccc32)cn1 [[^11C]TASP0410457]
